Molecular target: T1, Muscarinic acetylcholine receptor M1 (Homo sapiens, UniProt P11229)
T1 sequence (P11229 whole entry): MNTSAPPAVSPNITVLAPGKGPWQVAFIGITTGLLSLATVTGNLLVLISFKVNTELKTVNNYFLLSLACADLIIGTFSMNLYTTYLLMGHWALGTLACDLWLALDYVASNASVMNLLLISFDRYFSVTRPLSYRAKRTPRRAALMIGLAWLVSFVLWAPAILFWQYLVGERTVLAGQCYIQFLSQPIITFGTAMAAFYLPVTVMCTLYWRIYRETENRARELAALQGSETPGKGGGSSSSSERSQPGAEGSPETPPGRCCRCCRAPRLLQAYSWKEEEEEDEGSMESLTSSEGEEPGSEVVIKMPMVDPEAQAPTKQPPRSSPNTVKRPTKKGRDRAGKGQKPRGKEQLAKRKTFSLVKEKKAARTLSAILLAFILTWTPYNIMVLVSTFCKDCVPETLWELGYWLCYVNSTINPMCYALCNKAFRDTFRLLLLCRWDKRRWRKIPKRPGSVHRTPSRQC
Assay: Cell-Based Functional Assay of Muscarinic Acetylcholine Receptor: For high throughput measurement of agonist-evoked increases in intracellular calcium, CHO-K1 cells stably expressing muscarinic receptors were plated in growth medium lacking G418 and hygromycin at 15,000 cells/20 μL/well in Greiner 384-well black-walled, tissue culture (TC)-treated, clear-bottom plates (VWR). Cells were incubated overnight at 37° C. and 5% CO2. The next day, cells were washed using an ELX 405 (BioTek) with four washes (80 μL) of assay buffer then aspirated to 20 μL. Next, 20 μL of 16 μM Fluo-4/acetoxymethyl ester (Invitrogen, Carlsbad, Calif.) prepared as a 2.3 mM stock in DMSO and mixed in a 1:1 ratio with 10% (w/v) Pluronic F-127 and diluted in assay buffer was added to the wells and the cell plates were incubated for 50 min at 37° C. and 5% CO2. Dye was removed by washing with the ELX 405 (four 80 μL washes of assay buffer) then aspirated to 20 μL. Compound master plates were formatted in an 11 point CRC format (1:3 dilutions) in 100% DMSO with a starting concentration of 10 mM using the BRAVO liquid handler (Agilent). […]

Cn1cc2cc(-c3cc(F)c(CN4Cc5ccc6nccn6c5C4=O)c(F)c3)ccc2n1
EC50: 10 µM

Source: ChEMBL document CHEMBL5726657, “Substituted pyrrolo[3,4-e]indolizines, imidazo[1,2-a]pyrrolo[3,4-e]pyridines, pyrrolo[3,4-e][1,2,4]triazolo[1,5-a]pyridines and pyrrolo[3,4-e][1,2,4]triazolo[4,3-a]pyridines as positive allosteric modulators of muscarinic acetylcholine receptor M1” (2019)
